Measured values published in patent US20220133701A1, “METHODS OF TREATING PAIN” (Yeda Research and Development Co. Ltd., priority 2019, published 2022).

What was measured:
importin α3 [1] = test: Western blot of importin α3 in HEK cells transduced with AAV9 constructs; assay type: cell-based; conditions: shα3 vs shCtrl, α3OE vs GFP (FIGS. 3A-C)
Description: Transfection and Western blot analysis: Knockdown and overexpression constructs were tested in HEK or N2A cells transfected using JetPEI (Polyplus) according to manufacturer's instructions and lysed 48 hours later in RIPA buffer supplemented with protease inhibitors (Complete, Roche). For Western blot analysis, 5 μg of protein was separated on TGX Protean 5-15% gradient gels (Biorad) and transferred to nitrocellulose membranes. Membranes were blocked with 5% dried milk-TBST and probed overnight with an importin α3 antibody (1:5000) and GAPDH (MAB374, Millipore, 1:5000) as a loading control in 2% milk-TBST, followed by an anti-mouse HRP-conjugated antibody (#1706516 Biorad). Chemiluminescence was detected with Amersham Imager 600 and band intensities were quantified using the built-in software. AAV production and intrathecal injection: Purified adeno-associated virus (AAV) or the peripheral neuron specific PHP.S (AAV-PHP.S) [K. Y. Chan et al., Nat Neurosci 20, 1172-1179 (2017)] was produced in HEK 293T cells (ATCC®), with the AAVpro® Purification Kit (All Serotypes) from TaKaRa (#6666). For each construct ten 15 cm plates were transfected with 20 μg of DNA (AAV-plasmid containing the construct of interest and two AASV9 or AAV-PHP.S helper plasmids) using jetPEI® (Polyplus) in DMEM medium without serum or antibiotics. […]

importin α3 [2] = test: Importin α3 immunostaining intensity in DRG sections and cultured DRG neurons (line scan / nuclear intensity); assay type: in vivo, mouse
Description: Histology—Lumbar sections of the spinal cord including Dorsal root ganglia (DRGs) were pre-fixed for 6 minutes before dissection of spinal cord and associated DRGs. Lumbar DRG (L4, unless otherwise indicated) and/or spinal cord were then fixed for six hours in 4% PFA in PBS, washed in PBS and equilibrated in 20% w/v sucrose in PBS prior to serial cryo-sectioning at a thickness of 10-20 μm. Following, one set for each DRG was processed for immunostaining. […]
Fluorescence Intensity Analysis: Line scan analysis of fluorescence intensity was carried out on high-resolution confocal z-stack from DRG sections to determine fluorescence intensity of c-FOS and importin α3 over cell regions of interest in-vivo. […] The integrated density was calculated as the sum of the values of the pixels in both cytoplasmic and nuclear regions of interest determined on the basis of TuJ-1, CGRP, TRPV1 or DAPI staining, respectively.

SNI mice = test: CatWalk gait analysis (footprint width) in SNI mice; assay type: in vivo, mouse; conditions: AAV9 shRNA, 60 days post-injury, vs shCtrl (FIG. 4D)
Description: CatWalk gait analysis and training was carried out as previously described [Perry et al. Neuron 75, 294 (2012)]. Motivation was achieved by a combination of food restriction during the initial training and placing of palatable reward at runway ends. The test was repeated three times for each mouse. Data were collected and analyzed using the Catwalk Ethovision XT11 software (Noldus Information Technology, The Netherlands). The analyzed indices are reported for each animal as print area and print width.

mice [3] = test: Open field; assay type: in vivo, mouse; conditions: wild-type mice three weeks after intrathecal AAV9 shRNA (FIG. 5A)
Description: Motility and anxiety-like behaviors were assayed in the open field (OF) as previously described^8. Mouse activity was tracked and recorded using VideoMot2 (TSE System, Germany). OF was performed under 120 1× for the assessment of anxiety-related behaviors. The OF raw data were further analyzed with COLORcation [Dagan et al. J Neurosci Methods 270, 9 (2016)].

mice [4] = test: Rotarod; assay type: in vivo, mouse; conditions: wild-type mice three weeks after intrathecal AAV9 shRNA (FIG. 5B)
Description: Rotarod experiments to assess integrity of balance and coordination [Crawley. Neuron 57, 809 (2008)] was carried out using a ROTOR-ROD™ system (83×91×61-SD Instruments, San Diego). Mice were subjected to three trials with 20 minutes inter-trial intervals over three consecutive days, at three weeks and five weeks after AAV9 injection, calculating the daily average each time. Rotarod acceleration was set to 20 rpm in 240 seconds. Latency to fall (sec) was recorded and the average of the three or six consecutive trials was used as an index of motor coordination and balance.

[5] = listed as anti-importin α3 shRNAs

shα3: AAV9 expressing an importin α3 targeting shRNA (SEQ ID NO: 8), intrathecal injection (DNA GATCCGGCTTTGACAAACATTGCATGAAGCTTGATGCAATGTTTGTCAAAGCCTTTTTT)
impα3 protein level (western blot, GAPDH normalized) (importin α3 [1]): downregulation | impα3 nuclear intensity in cultured DRG neurons (importin α3 [2]; cultures of treated animals vs shCtrl (FIGS. 3G-H)): significant reduction in nuclear levels | impα3 signal, line scan intensity in DRG sections (importin α3 [2]; wild type mice one month following intrathecal injection, vs shCtrl (FIG. 3E)): reduction of impα3 signal | footprint width / paw morphology and gait parameters, Catwalk (SNI mice): significant recovery by 60 days | footprint width / paw morphology and gait parameters, Catwalk (SNI mice; listed as anti-importin α3 shRNA): regained unaltered paw morphology and gait parameters | open field (exploratory behaviour) (mice [3]): No deficits were observed in either test | open field (exploratory behaviour) (mice [3]; [5]): no effect | rotarod (motor coordination) (mice [4]): No deficits were observed in either test | rotarod (motor coordination) (mice [4]; [5]): no effect
